Assay results from patent US5942489A, “HGH-RH(1-29)NH2 analogues having antagonistic activity” (The Administrators of the Tulane Educational Fund, priority 1996, dated 1999).
Where “and” joins values, the source holds several entries; their conditions need not be identical. Equal values may be shown once.

What was measured:
[1] = tested on: GH release stimulated by hGH-RH(1-29)NH2; assay: In vivo inhibition of hGH-RH(1-29)NH2-stimulated serum GH in anesthetized rats; design: species or system Sprague-Dawley rats
Description: In Vivo Tests. Adult male Sprague-Dawley rats are anesthetized with pentobarbital (6 mg/100 g b.w., i.p.). Blood samples are taken from the jugular vein 30 min after the injection of pentobarbital. One group of 7 animals receives hGH-RH(1-29)NH2 as control. […] Blood samples are taken from the jugular vein 5 and 15 min after the injection of antagonists. GH levels are measured by RIA. Potencies of the antagonists are calculated by the factorial analysis of Bliss and Marks with 95% confidence limits and are based on the doses of 100 and 400 μg/kg b.w. of the Standard antagonist and 20 and 80 μg/kg b.w. of the antagonists tested. Statistical significance was assessed by Duncan's new multiple range test.

[2] = tested on: SW-1990 human pancreatic cancers; assay: SW 1990 human pancreatic cancers in nude mice; type: in vivo
Description: Small piees of an SW-1990 rumor growing in a nude mouse were transplated s.c. into the right flanks of 60 nu/nu male nude mice. Ten days after transplantation, 40 mice with well growing tumors were groupled into 4 groups with equal average tumor volume (16 mm^3) in each group. Treatment started 13 days after transplantation and was continuted for 44 days. The tumors were measured and volume was calculated weekly. Tumor volume changes are shown in Table V. On day 45 of treatment the mice were sacraficed under Metofane anesthesia by exsanguination from abdominal aorta. Blood was collected, tumor and organ weights were determined.

GH release = conditions: cited from earlier work
[3] = 80 μg/kg i.v., 15 min prior to GH-RH(1-29)NH2 3 μg/kg

Ibu^0 --D--Arg^2 --Phe(pCl)^6 --Abu^16 --Nle^27 ] hGHRH (1-28) Agm [Peptide A]
Inhibition % [1, 3]: 43% | Serum GH Levels [1, 3]: 585.33 ± 89.34 ng/mL | Serum GH Levels ([1]; 80 μg/kg i.v., 30 min prior to GH-RH(1-29)NH2 3 μg/kg): 788.39 ± 96.93 ng/mL | effect on growth of SW-1990 cancers (volume and weight data) ([2]; Peptide #8 at 10 μg/day): no significant effect on the tumors | Final Tumor Volume mm^3 ([2]; dose 10, 44 days treatment): 1183 ± 342 mm^3 | Tumor weights ([2]; dose 10, 44 days treatment): 1467 ± 595 mg | Final Tumor Volume mm^3 ([2]; dose 40, 44 days treatment): 902 ± 156 mm^3 | Tumor weights ([2]; dose 40, 44 days treatment): 1297 ± 258 mg

CC[C@H](C)[C@H](NC(=O)[C@H](C)NC(=O)[C@H](CC(=O)O)NC(=O)[C@H](C)NC(=O)[C@@H](N)Cc1ccc(O)cc1)C(=O)N[C@@H](Cc1ccccc1)C(=O)N[C@H](C(=O)N[C@@H](CC(N)=O)C(=O)N[C@@H](CO)C(=O)N[C@@H](Cc1ccc(O)cc1)C(=O)N[C@@H](CCCNC(=N)N)C(=O)N[C@@H](CCCCN)C(=O)N[C@H](C(=O)N[C@@H](CC(C)C)C(=O)NCC(=O)N[C@@H](CCC(N)=O)C(=O)N[C@@H](CC(C)C)C(=O)N[C@@H](CO)C(=O)N[C@@H](C)C(=O)N[C@@H](CCCNC(=N)N)C(=O)N[C@@H](CCCCN)C(=O)N[C@@H](CC(C)C)C(=O)N[C@@H](CC(C)C)C(=O)N[C@@H](CCC(N)=O)C(=O)N[C@@H](CC(=O)O)C(=O)N[C@H](C(=O)N[C@@H](CCSC)C(=O)N[C@@H](CO)C(=O)N[C@@H](CCCNC(=N)N)C(N)=O)[C@@H](C)CC)C(C)C)[C@@H](C)O [GH-RH (1-29) NH2, Tyr-Ala-Asp-Ala-Ile^5 -Phe-Thr-Asn-Ser-Tyr^10 -Arg-Lys-Val-Leu-Gly^15 -Gln-Leu-Ser-Ala-Arg^20 -Lys-Leu-Leu-Gln-Asp^25 -Ile-Met-Ser-Arg^29 -NH2]
Serum GH Levels ([1]; GH-RH(1-29)NH2 alone 3.0 μg/kg i.v. (stimulated control)): 695.15 ± 95.40 ng/mL and 703.34 ± 90.01 ng/mL and 724.68 ± 93.01 ng/mL and 883.36 ± 148.34 ng/mL and 703.34 ± 93.01 ng/mL

[AcTyr^1 ]hGH-RH(1-29)NH2
in vivo potency over that of GH-RH (GH release): ten fold or more
